# Measured values taken from patent US6890736B1, “Methods for producing proteins in cultured cells” (Immunex Corporation, priority 2002, dated 2005).
# Where “and” joins values, the source holds several entries; their conditions need not be identical. Equal values may be shown once.
# Tests used:
# [1] = test system: cell line 25H9 (CHO cells that produce IL-1R-II protein); test: Example 1: induction of IL-1R-II production (ELISA titer, productivity) at 31° C. or 34° C.; format: cell-based, Chinese hamster
# Protocol: The following experiment was designed to test whether decitabine can induce the production of a protein, in this case a recombinant soluble form of the human interleukin 1 receptor type II (IL-1-R-II), at either 31° C. or 34° C. Soluble versions of IL-1R-II and methods for producing it are described in U.S. Pat. No. 5,767,064. DNA encoding a soluble form of the human IL-1R-II was inserted into pG3.6, which is described in Morris et al. ((1998), Cytotechnology 28:9-17). This construct was used to transfect CHO cells to produce cell lines, including 25H9, that produce IL-1R-II protein.
# (§1) About 2×10^6 cells of cell line 25H9 were inoculated into 30 milliliters of serum-free medium and incubated at the temperatures indicated in Table 1 in vented shake flasks. At the times indicated in Table 1, samples were taken from each flask to determine IL-1R-II titer, cell number, and cell viability. IL-1R-II protein titer was determined by ELISA assay. Cell number was determined by counting cells in a hemocytometer. Cell viability was determined by trypan blue staining and counting stained cells in a hemocytometer. Cumulative viable cell density (CVCD) is the area under the curve of a plot of the viable cell density versus time (in units of cells/ml/day). Productivity (pg of IL-1R-II/cell/day) was determined by dividing the protein titer on a particular day by the CVCD on the same day. Cells were fed with amino acids on days 2 and 5, and dextrose was added periodically in order to maintain levels above 2.0 g/L. All samples were done in duplicate, and the data shown is an average value.
# [2] = test system: cell line 25H9 (CHO cells that produce IL-1R-II protein); test: Example 2: optimization of temperature and decitabine concentration, IL-1R-II production; format: cell-based, Chinese hamster
# Protocol: as §1
# To determine an optimum temperature and decitabine concentration, three temperatures (30° C., 31° C., and 32° C.) and three decitabine concentrations (10 μM, 15 μM, and 20 μM) were tested. A 31° C. culture containing 0.5 mM sodium butyrate was grown as a control. […] See e.g. International Application Nos. WO 89/06686 and WO 87/05626. The experiment was performed as in Example 1 except that the inducer concentrations, temperatures, and days at which data was collected are as indicated in Table 2 and FIG. 1.
# [3] = 31° C., 1 μM decitabine, day 10
# [4] = 31° C., 5 μM decitabine, day 10
# [5] = 31° C., 10 μM decitabine, day 3
# [6] = 31° C., 10 μM decitabine, day 5
# [7] = 31° C., 10 μM decitabine, day 7
# [8] = 31° C., 10 μM decitabine, day 10
# [9] = 34° C., 10 μM decitabine, day 3
# [10] = 34° C., 10 μM decitabine, day 5
# [11] = 34° C., 10 μM decitabine, day 7
# [12] = 30° C., 10 μM decitabine, day 3
smiles,measurement,setting,value
"Nc1ncn([C@H]2C[C@H](O)[C@@H](CO)O2)c(=O)n1 [decitabine, 5-aza-2′-deoxycytidine]",IL-1R-II Titer,"[1]; 31° C., 1 μM decitabine, day 0",0.0 µg/mL
same,IL-1R-II Titer,"[1]; 31° C., 1 μM decitabine, day 3",62.6 µg/mL
same,Productivity,"[1]; 31° C., 1 μM decitabine, day 3",7.5 pg IL-1R-II/cell/day
same,IL-1R-II Titer,"[1]; 31° C., 1 μM decitabine, day 5",132.0 µg/mL
same,Productivity,"[1]; 31° C., 1 μM decitabine, day 5",7.8 pg IL-1R-II/cell/day
same,IL-1R-II Titer,"[1]; 31° C., 1 μM decitabine, day 7",216.5 µg/mL
same,Productivity,"[1]; 31° C., 1 μM decitabine, day 7",7.8 pg IL-1R-II/cell/day
same,IL-1R-II Titer,[1]; [3],330.5 µg/mL
same,Productivity,[1]; [3],7.5 pg IL-1R-II/cell/day
same,IL-1R-II Titer,"[1]; 31° C., 5 μM decitabine, day 0",0.0 µg/mL
same,IL-1R-II Titer,"[1]; 31° C., 5 μM decitabine, day 3",77.8 µg/mL
same,Productivity,"[1]; 31° C., 5 μM decitabine, day 3",9.2 pg IL-1R-II/cell/day
same,IL-1R-II Titer,"[1]; 31° C., 5 μM decitabine, day 5",123.5 µg/mL
same,Productivity,"[1]; 31° C., 5 μM decitabine, day 5",7.8 pg IL-1R-II/cell/day
same,IL-1R-II Titer,"[1]; 31° C., 5 μM decitabine, day 7",210.5 µg/mL
same,Productivity,"[1]; 31° C., 5 μM decitabine, day 7",9.2 pg IL-1R-II/cell/day
same,IL-1R-II Titer,[1]; [4],351.0 µg/mL
same,Productivity,[1]; [4],8.8 pg IL-1R-II/cell/day
same,IL-1R-II titer relative to the titer observed at 31° C. with no inducer,"[1]; 31° C., 10 μM decitabine",1.7 times
same,most effective concentration for IL-1R-II titer,"[1]; 31° C., 10 μM decitabine among 1, 5, 10 μM",most effective concentration among those tested
same,IL-1R-II Titer,"[1]; 31° C., 10 μM decitabine, day 0",0.0 µg/mL
same,IL-1R-II Titer,[1]; [5],59.1 µg/mL
same,Productivity,[1]; [5],8.0 pg IL-1R-II/cell/day
same,IL-1R-II Titer,[1]; [6],149.5 µg/mL
same,Productivity,[1]; [6],10.4 pg IL-1R-II/cell/day
same,IL-1R-II Titer,[1]; [7],224.5 µg/mL
same,Productivity,[1]; [7],10.4 pg IL-1R-II/cell/day
same,IL-1R-II Titer,[1]; [8],378 µg/mL and 378.0 µg/mL
same,Productivity,[1]; [8],11.9 pg IL-1R-II/cell/day
same,IL-1R-II Titer,"[1]; 34° C., 1 μM decitabine, day 0",0.0 µg/mL
same,IL-1R-II Titer,"[1]; 34° C., 1 μM decitabine, day 3",65.4 µg/mL
same,Productivity,"[1]; 34° C., 1 μM decitabine, day 3",5.7 pg IL-1R-II/cell/day
same,IL-1R-II Titer,"[1]; 34° C., 1 μM decitabine, day 5",143.5 µg/mL
same,Productivity,"[1]; 34° C., 1 μM decitabine, day 5",5.6 pg IL-1R-II/cell/day
same,IL-1R-II Titer,"[1]; 34° C., 1 μM decitabine, day 7",212.5 µg/mL
same,Productivity,"[1]; 34° C., 1 μM decitabine, day 7",5.1 pg IL-1R-II/cell/day
same,IL-1R-II Titer,"[1]; 34° C., 1 μM decitabine, day 10",206.0 µg/mL
same,IL-1R-II Titer,"[1]; 34° C., 5 μM decitabine, day 0",0.0 µg/mL
same,IL-1R-II Titer,"[1]; 34° C., 5 μM decitabine, day 3",73.6 µg/mL
same,Productivity,"[1]; 34° C., 5 μM decitabine, day 3",6.4 pg IL-1R-II/cell/day
same,IL-1R-II Titer,"[1]; 34° C., 5 μM decitabine, day 5",156.5 µg/mL
same,Productivity,"[1]; 34° C., 5 μM decitabine, day 5",6.3 pg IL-1R-II/cell/day
same,IL-1R-II Titer,"[1]; 34° C., 5 μM decitabine, day 7",218.5 µg/mL
same,Productivity,"[1]; 34° C., 5 μM decitabine, day 7",5.7 pg IL-1R-II/cell/day
same,IL-1R-II Titer,"[1]; 34° C., 5 μM decitabine, day 10",307 µg/mL and 307.0 µg/mL
same,IL-1R-II Titer,"[1]; 34° C., 10 μM decitabine, day 0",0.0 µg/mL
same,IL-1R-II Titer,[1]; [9],80.8 µg/mL
same,Productivity,[1]; [9],8.3 pg IL-1R-II/cell/day
same,IL-1R-II Titer,[1]; [10],151.5 µg/mL
same,Productivity,[1]; [10],7.9 pg IL-1R-II/cell/day
same,IL-1R-II Titer,[1]; [11],203.5 µg/mL
same,Productivity,[1]; [11],7.5 pg IL-1R-II/cell/day
same,IL-1R-II titers at 34° C. compared with 31° C.,[1]; all concentrations of decitabine at 34° C.,Lower IL-1R-II titers
same,productivity on a per cell basis,[1]; at 7 and 10 days at all concentrations and temperatures tested,increased
same,IL-1R-II produced at 31° C. versus 30° C. or 32° C. (FIG. 1),"[2]; 10 μM decitabine, 8 days",more IL-1R-II
same,IL-1R-II titer in 20 μM versus 10 μM or 15 μM decitabine,[2]; 30° C.,higher titer of IL-1R-II
same,IL1R-II Titer,"[2]; 30° C., 10 μM decitabine, day 0",0.0 µg/mL
same,IL1R-II Titer,[2]; [12],68.2 µg/mL
same,Productivity,[2]; [12],9.2 pg IL-1R-II/cell/day
same,IL1R-II Titer,"[2]; 30° C., 10 μM decitabine, day 6",156.5 µg/mL
